Results reported in PubChem BioAssay AID651703 (Broad Institute, 2012).

Target: Transforming acidic coiled-coil-containing protein 3 (Homo sapiens) (UniProt Q9Y6A5)
Assay: ARNT/TACC3 interaction disruptors, potency, confirmation, biochemical, AlphaScreen, cherry-picked samples (AID 651703);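 also: TACC3 partner is the GST-tagged E629A mutant dimer; hits lower the signal meaning they disrupt ARNT binding to TACC3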
Settings: AlphaScreen His-ARNT PAS-B / GST-TACC3 binding, luminescence

SMILES | AC50
CCCCCc1cc(=O)oc2c(C(CCN(CC)CC)c3ccc(N(C)C)cc3)c(OC)cc(OC)c12 (stereo not given) | 5.02 µM
Cn1c(-c2ccccc2)cnc1N | 37.5 µM
CC(=O)/C(=N\Nc1ccc(Cl)cc1Cl)Sc1cccc2cccnc12 | 2.95 µM
O=C(Nc1ccc(Cl)cc1)O/N=C(\c1ccccc1)c1ccccn1 | 17.6 µM
CCc1cc(C(=O)Nc2nc(-c3ccccn3)cs2)sc1C | 22.9 µM
O=S(=O)(N[C@@H]1CC[C@@H](CCn2cc(-c3ccccn3)nn2)O[C@H]1CO)c1cccc(Cl)c1 | 15.3 µM
COc1ccc(NC(=O)N[C@@H]2CC[C@@H](CCn3cc(-c4ccccn4)nn3)O[C@H]2CO)cc1 | 28.6 µM
COc1ccc(NC(=O)N[C@@H]2CC[C@H](CCn3cc(-c4ccccn4)nn3)O[C@H]2CO)cc1 | 12.7 µM
O=C(NN=C(c1ccccc1)c1ccccn1)c1ccccc1 | 16.9 µM
Cc1cccnc1Nc1nc(-c2ccccn2)cs1 | 0.756 µM
Cc1sc2ncnc(N/N=C/c3ccccc3O)c2c1C | 10.1 µM
COc1cccc(/C=N/NC(=O)C(=O)N2CCCCCC2)c1O | 18.8 µM
O=C(CN1C(=O)CCC1=O)Nc1nc(-c2ccccn2)cs1 | 4.39 µM
Cc1cccc(CSc2cccc3cccnc23)c1 | 1.79 µM
CNc1nc(-c2ccccn2)nnc1-c1ccccc1 | < 0.5 µM
O=C(CSc1cccc2cccnc12)Nc1ccccc1F | 19.5 µM
O=S(=O)(N[C@H]1CC[C@H](CCn2cc(-c3ccccn3)nn2)O[C@H]1CO)c1cccc(F)c1 | 21.8 µM
COc1ccc(C(=O)Cc2nnc(C)s2)c(OC)c1 | 67.3 µM
CN(C)C(=O)CSc1cccc2cccnc12 | 4.27 µM
CN1CCc2c(sc3c2C(=O)NC(c2ccccn2)N3)C1 (stereo not given) | 5.51 µM
O=C(N/N=C/c1ccccc1O)C1SCCCS1 | 22.6 µM
Cc1ccc(C(=O)Nc2nc(-c3ccccn3)cs2)s1 | 4.78 µM
O=C(Nc1ccccc1C(F)(F)F)c1ncn[nH]1 | 13.1 µM

SMILES | AC50
O=C(NCCCn1ccnc1)c1ccc2nccnc2c1 | 67.5 µM
O=[N+]([O-])c1cc(Cl)cc(/C=N\Nc2ccccn2)c1O | 5.13 µM
O=C(NC[C@H]1[C@@H](c2ccccc2)[C@@H](CO)N1Cc1ccccn1)C1CCC1 | 51.5 µM
CCOc1ccc(C2=Nn3c(nnc3-c3ccccn3)SC2)cc1 | 20.4 µM
N#CC1=C(N)Oc2c(ccc3cccnc23)C1c1cccnc1 (stereo not given) | 7.36 µM
Oc1ccc(CN2CCC3CCCCC3C2)c2cccnc12 (stereo not given) | 1.22 µM
CC1(C)Cc2c(sc3nc4n(-c5ccccc5)c(=O)c(CCC(=O)O)nn4c(=O)c23)CO1 | 19.2 µM
COc1cccc(/C=N/n2c(-c3n[nH]c4c3CCC4)n[nH]c2=S)c1O | 28.7 µM
O=C(CSc1cccc2cccnc12)Nc1ccc(S(=O)(=O)N2CCOCC2)cc1 | 10.9 µM
CC(=O)NC(c1ccc2ccccc2c1)c1ccc2cccnc2c1O (stereo not given) | 5.44 µM
O=C(NCCCn1ccnc1)Nc1ccc(Cl)c(Cl)c1 | 25.2 µM
O=C(O)c1cn[nH]c1-n1cnnn1 | 40.6 µM
CC(=O)NC(c1cccs1)c1cc([N+](=O)[O-])c2cccnc2c1O (stereo not given) | 2.71 µM
Cc1cccc(NC(=O)CSc2ccc(-c3ccccn3)nn2)c1C | 2.86 µM
CC(NC1=CC(=O)c2cccnc2C1=O)C(O)c1ccccc1 (stereo not given) | 15.5 µM
Cc1ccc(S(=O)(=O)N2CCOCC2)cc1NC(=O)CNCc1ccccn1 | 6.07 µM
O=C(CSc1n[nH]c(=O)[nH]c1=O)N/N=C/c1ccccc1O | 43 µM
O=C(C1CCCC1)N1C[C@@H]2[C@H](c3ccccc31)[C@H](CO)N2C(=O)Cc1ccccn1 | 67.4 µM
O=C(COC(=O)c1ccco1)Nc1nnc(-c2ccccc2)o1 | 24.8 µM
OCCCNc1nc(-c2ccccn2)nnc1-c1ccccc1 | < 0.5 µM
O=C(N[C@@H]1CC[C@H](CCn2cc(-c3ccccn3)nn2)O[C@@H]1CO)c1ccccc1 | 20.7 µM
COc1cc(C2C(C#N)=C(N)Oc3n[nH]c(-c4ccccn4)c32)cc(OC)c1OC (stereo not given) | 19.7 µM
O=C(NCCCn1ccnc1)C(=O)NCC(c1ccco1)N1CCN(c2ccccc2)CC1 (stereo not given) | 6.85 µM

SMILES | AC50
Cc1cccc(C(=O)Nc2nnc(C3=COCCO3)o2)c1 | 12.6 µM
O=C(COC(=O)c1cccc(O)c1)Nc1nnc(-c2ccccc2)o1 | 16 µM
Nc1nc(CN2CCCCCC2)nc(Nc2ccccc2)n1 | 59 µM
O=C(Oc1c(CN2CCOCC2)cc(Cl)c2cccnc12)c1ccccc1 | 18.3 µM
CCN(CC)c1ccc(/C=N/NC(=O)c2cnccn2)c(O)c1 | 11.3 µM
O=C(O)c1ccc(C2CCCCC2)cn1 | 3.12 µM
O=C(NC12CC3CC(CC(C3)C1)C2)c1ccc(-c2ccccc2Cl)o1 | 51 µM
CC1OC(CC(=O)O)CC2=C1C(=O)c1c(O)cccc1C2=O (stereo not given) | 46.9 µM
O=C(N/N=C/c1cc([N+](=O)[O-])ccc1O)c1ccncc1 | 1.01 µM
COc1ccc(NC(=O)Nc2ccc3c(c2)CC(=O)N([C@H](C)CO)C[C@H](C)[C@@H](CN(C)Cc2ccc(Oc4ccccc4)cc2)O3)cc1 | 23.6 µM
O=C(N[C@H]1CC[C@@H](CCn2cc(-c3ccccn3)nn2)O[C@@H]1CO)c1ccccc1 | 15.5 µM
O=C(c1ccccn1)N1CC[C@@H]2[C@H]1c1cc(Br)ccc1N[C@@H]2CO | 27.7 µM
O=C(N/N=C\c1cccc([N+](=O)[O-])c1O)C1COc2ccccc2O1 (stereo not given) | 14.7 µM
O=S(=O)(N[C@H]1CC[C@@H](CCn2cc(-c3ccccn3)nn2)O[C@H]1CO)c1cccc(Cl)c1 | 23.4 µM
O=C(CSc1n[nH]c(-c2ccccn2)n1)Nc1ccccc1 | 0.706 µM
COc1cc(OC)c(C(=O)OCC(=O)Nc2nnc(-c3ccccc3)o2)cc1OC | 19 µM
N#CC1=C(N)Oc2c(ccc3cccnc23)C1c1ccncc1 (stereo not given) | 26.9 µM
COc1ccccc1Nc1nc(N)nc(CN(C)C2CCCCC2)n1 | 37.7 µM
Cc1cccc(C(=O)Nc2nnc(-c3ccco3)o2)c1 | 5.86 µM
Cc1ccccc1C(=O)Nc1cccc(C(=O)N/N=C/c2cc(Cl)cc([N+](=O)[O-])c2O)c1 | 40 µM
O=C(CSc1ccc(-c2ccccn2)nn1)NCc1ccc(Cl)cc1 | 11 µM
O=C(Nc1nc(NC(=O)c2ccco2)n(-c2ccccc2)n1)c1ccccc1 | 12.9 µM
C/C(=N\NC(=O)Cc1ccc(Cl)cc1)c1ccccn1 | 10.2 µM

SMILES | AC50
CNCc1cn2cc(Cl)ccc2n1 | 21 µM
COc1ccc([Si](C)(C)[C@@H]2[C@@H](CCO)O[C@]3(C(=O)N4c5c(cc(OC)cc53)C(C)=CC4(C)C)[C@H]2C)cc1 | 11.3 µM
Brc1ccc(OCc2nc(-c3ccccn3)n[nH]2)cc1 | 3.6 µM
CCN(CC)S(=O)(=O)c1ccc(NN)nc1 | 8.98 µM
Cc1ccc(Nc2c(-c3ccccn3)nc3cccc(C)n23)cc1 | 3.62 µM
CCSc1nnc(NC(=O)c2ccccn2)s1 | 3.61 µM
Cc1ccn2c(Nc3ccccc3C)c(-c3ccccn3)nc2c1 | 3.69 µM
CCOc1cc2c(C#N)c(N3CCOCC3)nc(N)c2c(N)n1 | 30.4 µM
COc1cc(NCCCCCCN)c2ncccc2c1OC | 16.1 µM
Cc1ccccc1CSc1nnc(-c2ccccn2)n1N | 31.7 µM
CN1CCN(C2CCN(Cc3ccc(O)c4ncccc34)CC2)CC1 | 2.3 µM
CCOc1ccc(N(CC(=O)Nc2ccc(OC)cc2OC)S(=O)(=O)c2c(C)[nH]c(=O)[nH]c2=O)cc1 | 27.6 µM
O=C(CSc1ccc(-c2ccccn2)nn1)c1ccccc1 | 3.36 µM
COc1cc(CCNc2ccc3nnc(-c4ccccc4)n3n2)cc(OC)c1OC | 10.6 µM
Oc1c(CN2CCN(c3ccccc3)CC2)cc(Br)c2cccnc12 | 1.07 µM
Cc1ccc(NC(=O)CNCc2ccccn2)cc1S(=O)(=O)N(C)C | 8.68 µM
CN(C)CCN(C(=O)c1ccc2c(c1)CCCC2)c1nc2cc3c(cc2s1)OCCO3 | 19.9 µM
O=C(N[C@H]1CC[C@@H](CCn2cc(-c3ccccn3)nn2)O[C@H]1CO)c1ccc(F)cc1 | 12.6 µM
CC(=O)NC(c1cc(Cl)c2cccnc2c1O)C(C)C (stereo not given) | 1.47 µM
c1ccc(-c2nc(-c3ccncc3)n[nH]2)nc1 | 2.79 µM
O=S(=O)(N[C@@H]1CC[C@@H](CCn2cc(-c3ccccn3)nn2)O[C@@H]1CO)c1cccc(F)c1 | 13.4 µM
c1ccc(-c2cnc(-c3ccccn3)nn2)cc1 | 3.23 µM
N[C@@H]1CC[C@H](CCn2cc(-c3ccccn3)nn2)O[C@H]1CO | 1.13 µM

SMILES | AC50
C/C=C/c1ccc([C@H]2[C@@H](CO)N(Cc3ccccn3)[C@H]2CNC(=O)CC)cc1 | 66.7 µM
C[C@@H](C(=O)Nc1nc(-c2ccccn2)cs1)N1C(=O)C2CCCCC2C1=O (stereo not given in full) | 4.28 µM
CS(=O)(=O)c1cccc(-c2nnc(NC(=O)c3ccc(S(=O)(=O)N4CCCC4)cc3)o2)c1 | 22.5 µM
CC(=O)Nc1cccc(NC(=O)CSc2ccc(-c3ccccn3)nn2)c1 | 2.78 µM
O=S(=O)(N[C@H]1CC[C@@H](CCn2cc(-c3ccccn3)nn2)O[C@H]1CO)c1cccc(F)c1 | 19.1 µM
Fc1ccc(-c2ccc(CNCc3ccccn3)o2)cc1Cl | 17.5 µM
O=C(Nc1nc(-c2ccccn2)cs1)c1ccc(F)c(S(=O)(=O)N2CCOCC2)c1 | 2.76 µM
Oc1cccc2c(-c3nn[nH]n3)ccnc12 | 2.14 µM
Cc1cc(NC(c2ccc(Cl)cc2)c2ccc3cccnc3c2O)no1 (stereo not given) | 10.2 µM
O=c1cc(C(F)(F)F)nc(-n2[nH]c3c(c2=O)CCCC3)[nH]1 | 28 µM
COc1cc(/C=N/N(CCO)C2=NS(=O)(=O)c3ccccc32)cc(OC)c1OC | 15.6 µM
Oc1ccc(CNC2CCc3ccccc32)c2cccnc12 (stereo not given) | 1.22 µM
N/C(=N\OC(=O)Cc1ccc([N+](=O)[O-])cc1)c1ccccn1 | 21.5 µM
N/C(=N\OS(=O)(=O)c1ccc(Cl)cc1)c1ccccn1 | 22.5 µM
COc1ccc(OC)c(NC(=O)CSc2ccc3nnc(-c4ccccn4)n3n2)c1 | 34.3 µM
Cc1cccc(NC(=O)CCC(=O)N/N=C/c2ccc(O)cc2O)c1 | 22.4 µM
O=S(=O)(N[C@@H]1CC[C@H](CCn2cc(-c3ccccn3)nn2)O[C@@H]1CO)c1cccc(F)c1 | 29.1 µM
CN(C)CCCNc1cc(O)c2ncccc2c1 | 0.583 µM
Cc1c(CCO)c(=O)n(-c2ccccc2)n1S(=O)(=O)c1c(Cl)cc(Cl)cc1Cl | 39.8 µM
CC(=O)NC(C)c1cc(Cl)c2cccnc2c1O (stereo not given) | 6.14 µM
CCC(=O)NC(c1ccc(C)cc1)c1ccc2cccnc2c1O (stereo not given) | 4.71 µM
COc1ccc2ccccc2c1CNCc1ccccn1 | 24.8 µM
O=C(CSc1nnc(CNC(=O)c2ccc(F)cc2)o1)Nc1nccs1 | 61.9 µM
